# Data published in patent US12410171B2, “Tropomyosin receptor kinase (TRK) degradation compounds and methods of use” (Cullgen (Shanghai), Inc., priority 2020, dated 2025).
# System: KM12 cells
# Experiment: KM12 cell viability (CellTiter-Glo)
# Format: cell-based
# Conditions: Homo sapiens, 72 h; KM12 cell viability, 11-point 3-fold serial dilution, 3 days, CellTiter-Glo; read-out: IC50
# Procedure: KM12 or H358 cells were treated with 1000 nM CPD-053 following an 8-point 3-fold serial dilution for 3 days.
# KM12 cells seeded in 96-well plates were treated with heterobifunctional compounds following a 11-point 3-fold serial dilution for 3 days.
# KM12, H358, HEL, SU-DHL-1 and other cells were cultured at 37° C. with 5% CO2 in RPMI 1640 Medium supplemented with 10% fetal bovine serum. Cells were authenticated using the short tandem repeat (STR) assays. Mycoplasma test results were negative. Stable cell lines were established by lentivirus transduction, selected and maintained in medium containing 1 μg/mL puromycin (Beyotime Biotechnology).
# Cells were seeded at a density of 5000 cells per well in 96-well assay plates and treated with test compounds following a 12-point 2-fold serial dilution or a 8-point 3-fold dilution, or 11-point 3-fold serial dilution. Three days later, cell viability was determined using the CellTiter-Glo assay kit (Promega) according to the manufacturer's instructions. The dose-response curves were determined and IC50 values were calculated using the GraphPad Prism software following a nonlinear regression (least squares fit) method.
row,SMILES,IC50 [nM]
1,"Cc1ncsc1-c1ccc(CNC(=O)[C@@H]2C[C@@H](O)CN2C(=O)[C@@H](NC(=O)CCOCCOCCOCCC(=O)N2CCN(Cc3ccc(NC(=O)c4coc(N5CCOCC5)n4)c(N4CCC(C(N)=O)CC4)c3)CC2)C(C)(C)C)cc1 [CPD-496, N-(2-(4-carbamoylpiperidin-1-yl)-4-((4-((S)-15-((2S,4R)-4-hydroxy-2-((4-(4-methylthiazol-5-yl)benzyl)carbamoyl)pyrrolidine-1-carbonyl)-16,16-dimethyl-13-oxo-4,7,10-trioxa-14-azaheptadecanoyl)piperazin-1-yl)methyl)phenyl)-2-morpholinooxazole-4-carboxamide]",8760
2,"Cc1ncsc1-c1ccc(CNC(=O)[C@@H]2C[C@@H](O)CN2C(=O)[C@@H](NC(=O)CCOCCOCCOCCOCCC(=O)N2CCN(Cc3ccc(NC(=O)c4coc(N5CCOCC5)n4)c(N4CCC(C(N)=O)CC4)c3)CC2)C(C)(C)C)cc1 [CPD-497, N-(2-(4-carbamoylpiperidin-1-yl)-4-((4-((S)-18-((2S,4R)-4-hydroxy-2-((4-(4-methylthiazol-5-yl)benzyl)carbamooyl)pyrrolidine-1-carbonyl)-19,19-dimethyl-16-oxo-4,7,10,13-tetraoxa-17-azaicosanoyl)piperazin-1-yl)methyl)phenyl)-2-morpholinooxazole-4-carboxamide]",> 10000
3,"COc1ccc(COc2ccc(Cn3c(N)nc4cc(-c5cnn(CC(=O)NCCOCCNc6cccc7c6C(=O)N(C6CCC(=O)NC6=O)C7=O)c5)cnc43)cc2OC)cc1 (stereo not shown) [CPD-502, 2-(4-(2-amino-3-(3-methoxy-4-((4-methoxybenzyl)oxy)benzyl)-3H-imidazo[4,5-b]pyridin-6-yl)-1H-pyrazol-1-yl)-N-(2-(2-((2-(2,6-dioxopiperidin-3-yl)-1,3-dioxoisoindolin-4-yl)amino)ethoxy)ethyl)acetamide]",682
4,"COc1ccc(COc2ccc(Cn3c(N)nc4cc(-c5cnn(CC(=O)NCCOCCOCCNc6cccc7c6C(=O)N(C6CCC(=O)NC6=O)C7=O)c5)cnc43)cc2OC)cc1 (stereo not shown) [CPD-503, 2-(4-(2-amino-3-(3-methoxy-4-((4-methoxybenzyl)oxy)benzyl)-3H-imidazo[4,5-b]pyridin-6-yl)-1H-pyrazol-1-yl)-N-(2-(2-(2-((2-(2,6-dioxopiperidin-3-yl)-1,3-dioxoisoindolin-4-yl)amino)ethoxy)ethoxy)ethyl)acetamide]",504
5,"COc1ccc(COc2ccc(Cn3c(N)nc4cc(-c5cnn(CC(=O)NCCOCCOCCOCCNc6cccc7c6C(=O)N(C6CCC(=O)NC6=O)C7=O)c5)cnc43)cc2OC)cc1 (stereo not shown) [CPD-504, 2-(4-(2-amino-3-(3-methoxy-4-((4-methoxybenzyl)oxy)benzyl)-3H-imidazo[4,5-b]pyridin-6-yl)-1H-pyrazol-1-yl)-N-(2-(2-(2-(2-((2-(2,6-dioxopiperidin-3-yl)-1,3-dioxoisoindolin-4-yl)amino)ethoxy)ethoxy)ethoxy)ethyl)acetamide]",334
6,"COc1ccc(COc2ccc(Cn3c(N)nc4cc(-c5cnn(CC(=O)NCCOCCOCCOCCOCCNc6cccc7c6C(=O)N(C6CCC(=O)NC6=O)C7=O)c5)cnc43)cc2OC)cc1 (stereo not shown) [CPD-505, 2-(4-(2-amino-3-(3-methoxy-4-((4-methoxybenzyl)oxy)benzyl)-3H-imidazo[4,5-b]pyridin-6-yl)-1H-pyrazol-1-yl)-N-(14-((2-(2,6-dioxopiperidin-3-yl)-1,3-dioxoisoindolin-4-yl)amino)-3,6,9,12-tetraoxatetradecyl)acetamide]",195
7,"COc1ccc(COc2ccc(Cn3c(N)nc4cc(-c5cnn(CC(=O)NCCOCCOCCOCCOCCOCCNc6cccc7c6C(=O)N(C6CCC(=O)NC6=O)C7=O)c5)cnc43)cc2OC)cc1 (stereo not shown) [CPD-506, 2-(4-(2-amino-3-(3-methoxy-4-((4-methoxybenzyl)oxy)benzyl)-3H-imidazo[4,5-b]pyridin-6-yl)-1H-pyrazol-1-yl)-N-(17-((2-(2,6-dioxopiperidin-3-yl)-1,3-dioxoisoindolin-4-yl)amino)-3,6,9,12,15-pentaoxaheptadecyl)acetamide]",204
8,COc1ccc(COc2ccc(Cn3c(N)nc4cc(-c5cnn(CC(=O)NCC(=O)N[C@H](C(=O)N6C[C@H](O)C[C@H]6C(=O)NCc6ccc(-c7scnc7C)cc6)C(C)(C)C)c5)cnc43)cc2OC)cc1 [CPD-507],1520
9,"COc1ccc(COc2ccc(Cn3c(N)nc4cc(-c5cnn(CC(=O)NCCCC(=O)N[C@H](C(=O)N6C[C@H](O)C[C@H]6C(=O)NCc6ccc(-c7scnc7C)cc6)C(C)(C)C)c5)cnc43)cc2OC)cc1 [CPD-508, (2S,4R)-1-((S)-2-(4-(2-(4-(2-amino-3-(3-methoxy-4-((4-methoxybenzyl)oxy)benzyl)-3H-imidazo[4,5-b]pyridin-6-yl)-1H-pyrazol-1-yl)acetamido)butanamido)-3,3-dimethylbutanoyl)-4-hydroxy-N-(4-(4-methylthiazol-5-yl)benzyl)pyrrolidine-2-carboxamide]",2100
10,"COc1ccc(COc2ccc(Cn3c(N)nc4cc(-c5cnn(CC(=O)NCCCCCC(=O)N[C@H](C(=O)N6C[C@H](O)C[C@H]6C(=O)NCc6ccc(-c7scnc7C)cc6)C(C)(C)C)c5)cnc43)cc2OC)cc1 [CPD-509, (2S,4R)-1-((S)-2-(6-(2-(4-(2-amino-3-(3-methoxy-4-((4-methoxybenzyl)oxy)benzyl)-3H-imidazo[4,5-b]pyridin-6-yl)-1H-pyrazol-1-yl)acetamido)hexanamido)-3,3-dimethylbutanoyl)-4-hydroxy-N-(4-(4-methylthiazol-5-yl)benzyl)pyrrolidine-2-carboxamide]",53.1
11,"COc1ccc(COc2ccc(Cn3c(N)nc4cc(-c5cnn(CC(=O)NCCOCCC(=O)N[C@H](C(=O)N6C[C@H](O)C[C@H]6C(=O)NCc6ccc(-c7scnc7C)cc6)C(C)(C)C)c5)cnc43)cc2OC)cc1 [CPD-512, (2S,4R)-1-((S)-2-(3-(2-(2-(4-(2-amino-3-(3-methoxy-4-((4-methoxybenzyl)oxy)benzyl)-3H-imidazo[4,5-b]pyridin-6-yl)-1H-pyrazol-1-yl)acetamido)ethoxy)propanamido)-3,3-dimethylbutanoyl)-4-hydroxy-N-(4-(4-methylthiazol-5-yl)benzyl)pyrrolidine-2-carboxamide]",307
12,"COc1ccc(COc2ccc(Cn3c(N)nc4cc(-c5cnn(CC(=O)NCCOCCOCCC(=O)N[C@H](C(=O)N6C[C@H](O)C[C@H]6C(=O)NCc6ccc(-c7scnc7C)cc6)C(C)(C)C)c5)cnc43)cc2OC)cc1 [CPD-513, (2S,4R)-1-((S)-1-(4-(2-amino-3-(3-methoxy-4-((4-methoxybenzyl)oxy)benzyl)-3H-imidazo[4,5-b]pyridin-6-yl)-1H-pyrazol-1-yl)-14-(tert-butyl)-2,12-dioxo-6,9-dioxa-3,13-diazapentadecan-15-oyl)-4-hydroxy-N-(4-(4-methylthiazol-5-yl)benzyl)pyrrolidine-2-carboxamide]",261
13,"COc1ccc(COc2ccc(Cn3c(N)nc4cc(-c5cnn(CC(=O)NCCOCCOCCOCCC(=O)N[C@H](C(=O)N6C[C@H](O)C[C@H]6C(=O)NCc6ccc(-c7scnc7C)cc6)C(C)(C)C)c5)cnc43)cc2OC)cc1 [CPD-514, (2S,4R)-1-((S)-1-(4-(2-amino-3-(3-methoxy-4-((4-methoxybenzyl)oxy)benzyl)-3H-imidazo[4,5-b]pyridin-6-yl)-1H-pyrazol-1-yl)-17-(tert-butyl)-2,15-dioxo-6,9,12-trioxa-3,16-diazaoctadecan-18-oyl)-4-hydroxy-N-(4-(4-methylthiazol-5-yl)benzyl)pyrrolidine-2-carboxamide]",174
